These results are taken from patent publication US8263606B2 (Xenon Pharmaceuticals Inc., priority 2008, dated 2012).

The test system of one data set is sodium channel. The data set is described as follows: Guanidine influx assay (14C-guanidine radiotracer flux, in vitro). It counts as cell-based, human or rat. The note with it: guanidine influx assay using a known cell line that expresses a sodium channel. The procedure, abridged: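 Aconitine holds channels open while 14C-guanidine enters human or rat sodium-channel-expressing cells in choline-substituted low-sodium saline, with test agent present at ambient temperature. Retained tracer is scintillation-counted and IC50 fitted by a four-parameter logistic model.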

The target in the next data set is CYP3A4 (Homo sapiens, UniProt P08684). The data set is described as follows: Cytochrome P450 (CYP450) Inhibition Assay, CYP3A4 (Vivid fluorescence, BOMCC substrate). To be noted: human, P450 Baculosomes (recombinant CYP3A4), probe BOMCC (Vivid substrate).
CYP3A4, sequence (P08684 whole entry): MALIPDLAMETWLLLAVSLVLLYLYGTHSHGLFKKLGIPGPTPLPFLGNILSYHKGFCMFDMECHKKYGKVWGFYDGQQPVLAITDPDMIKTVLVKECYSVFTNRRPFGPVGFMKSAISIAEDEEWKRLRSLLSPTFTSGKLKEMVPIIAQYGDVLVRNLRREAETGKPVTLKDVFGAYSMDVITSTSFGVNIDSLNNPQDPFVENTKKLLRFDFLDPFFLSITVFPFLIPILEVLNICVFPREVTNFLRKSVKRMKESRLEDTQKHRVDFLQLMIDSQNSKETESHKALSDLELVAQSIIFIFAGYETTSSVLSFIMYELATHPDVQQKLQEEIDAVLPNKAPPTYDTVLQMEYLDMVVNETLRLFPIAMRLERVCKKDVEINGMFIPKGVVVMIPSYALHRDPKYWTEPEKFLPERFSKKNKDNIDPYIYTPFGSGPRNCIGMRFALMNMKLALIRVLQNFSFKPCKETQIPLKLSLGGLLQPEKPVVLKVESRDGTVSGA

In the case of `O=C1N(Cc2noc(C(F)F)n2)c2ccccc2C12COc1cc3c(cc12)OCO3` (stereo not drawn) [Example 11.22, 1-{[5-(difluoromethyl)-1,2,4-oxadiazol-3-yl]methyl}spiro[furo[2,3-f][1,3]benzodioxole-7,3′-indol]-2′(1′H)-one], the melting point (as a rule, the temperature of the solid-liquid transition) fell in the range of 137 to 139 °C. Moreover, the IC50 (commonly the point on the concentration scale where inhibition reaches its midpoint) with sodium channel was 1 to 100 nM. Besides, at CYP3A4, the inhibition (as a rule, the percentage by which the read-out fell short of the control) at 10 µM is over 50%.
In the same order, the values of `CC(C)(C)c1nc(CN2C(=O)C3(COc4cc5c(cc43)OCO5)c3ccccc32)no1` (stereo not drawn) [Example 11.23, 1′-[(5-tert-butyl-1,2,4-oxadiazol-3-yl)methyl]spiro[furo[2,3-f][1,3]benzodioxole-7,3′-indol]-2′(1′H)-one] are 183 to 185 °C, 1 to 100 nM and over 50%.
For the compound `O=C1N(Cc2noc(C3CC3)n2)c2ccccc2C12COc1cc3c(cc12)OCO3` (stereo not drawn) [Example 11.24, 1′-[(5-cyclopropyl-1,2,4-oxadiazol-3-yl)methyl]spiro[furo[2,3-f][1,3]benzodioxole-7,3′-indol]-2′(1′H)-one], the melting point was in the range of 136 to 137 °C. Besides, the IC50 with sodium channel fell in the range of 1 to 100 nM. In addition, at CYP3A4, the inhibition at 10 µM was over 50%.
In the same order, the values of `CC(C)c1nc(CN2C(=O)C3(COc4cc5c(cc43)OCO5)c3c(Cl)cccc32)no1` (stereo not drawn) [Example 11.25, 4′-chloro-1′-{[5-(1-methylethyl)-1,2,4-oxadiazol-3-yl]methyl}spiro[furo[2,3-f][1,3]benzodioxole-7,3′-indol]-2′(1′H)-one] are 165 to 167 °C, 1 to 100 nM and over 50%.
In turn, `CC(C)c1nc(CN2C(=O)C3(COc4cc5c(cc43)OCO5)c3ccccc32)no1` (stereo not drawn) [Example 11.26, 1′-{[5-(1-methylethyl)-1,2,4-oxadiazol-3-yl]methyl}spiro[furo[2,3-f][1,3]benzodioxole-7,3′-indol]-2′(1′H)-one] showed a melting point of 196 to 199 °C. Moreover, the IC50 in the data set with sodium channel was 1 to 100 nM. Besides, the inhibition at 10 µM at CYP3A4 is over 50%.
In the same order, the values of `O=C1N(Cc2cccc(-c3noc(C(F)(F)F)n3)c2)c2ccccc2C12COc1cc3c(cc12)CCO3` (stereo not drawn) [Example 11.28, 1′-{3-[5-(trifluoromethyl)-1,2,4-oxadiazol-3-yl]benzyl}-5,6-dihydrospiro[benzo[1,2-b:5,4-b′]difuran-3,3′-indol]-2′(1′H)-one] are 182 to 188 °C, 100 to 1000 nM and over 50%.
In the same order, the values of `Cc1nnc(-c2ccc(CN3C(=O)C4(COc5cc6c(cc54)CCO6)c4ccccc43)cc2)[nH]1` (stereo not drawn) [Example 11.29, 1′-[4(5-methyl-4H-1,2,4-triazol-3-yl)benzyl]-5,6-dihydrospiro[benzo[1,2-b:5,4-b′]difuran-3,3′-indol]-2′(1′H)-one] are 169 to 180 °C, 100 to 1000 nM and over 50%.
Compound `O=C1N(CCCO)c2ccccc2C12COc1cc3c(cc12)CCO3` (stereo not drawn) [Example 11.34, 1′-(3-hydroxypropyl)-5,6-dihydrospiro[benzo[1,2-b:5,4-b′]difuran-3,3′-indol]-2′(1′H)-one] returned a melting point of 54 to 56 °C. For the same compound, in the data set on sodium channel, the 50% inhibitory concentration (IC50) is 100 to 1000 nM. In addition, the inhibition at 10 µM at CYP3A4 is under 50%.
For `Nc1cccc2c1C1(COc3cc4c(cc31)CCO4)C(=O)N2C[C@H]1CCCO1` (stereo partly drawn) [Example 11.39, 4′-amino-1′-[(2R)-tetrahydrofuran-2-ylmethyl]-5,6-dihydrospiro[benzo[1,2-b:5,4-b′]difuran-3,3′-indol]-2′(1′H)-one], in that order: 190 to 192 °C, 100 to 1000 nM and over 50%.
Regarding `CN1C(=O)C2(COc3cc4c(cc32)CCO4)c2ccccc21` (stereo not drawn) [Example 11.43, 1′-methyl-5,6-dihydrospiro[benzo[1,2-b:5,4-b′]difuran-3,3′-indol]-2′(1′H)-one], the melting point lay in the range of 187 to 190 °C. Besides, the IC50 in the data set with sodium channel was in the range of 100 to 1000 nM. Moreover, on CYP3A4, the inhibition at 10 µM is under 50%.
As for `O=C1N(Cc2cccc(O)c2)c2ccccc2C12COc1cc3c(cc12)CCO3` (stereo not drawn) [Example 11.45, 1′-(3-hydroxybenzyl)-5,6-dihydrospiro[benzo[1,2-b:5,4-b′]difuran-3,3′-indol]-2′(1′H)-one], the melting point was in the range of 225 to 227 °C. Also, the IC50 in the data set with sodium channel fell in the range of 100 to 1000 nM. In addition, the inhibition at 10 µM at CYP3A4 is over 50%.
For `Nc1ccc2c(c1)OCC21C(=O)N(C[C@H]2CCCO2)c2ccccc21` (stereo partly drawn) [Example 11.47, 6-amino-1′-[(2R)-tetrahydrofuran-2-ylmethyl]spiro[1-benzofuran-3,3′-indol]-2′(1′H)-one], in that order: 71 to 74 °C, 1000 to 10000 nM and over 50%.
For `CC(C)CCN1C(=O)C2(COc3cc(O)ccc32)c2ccccc21` (stereo not drawn) [Example 11.49, 6-hydroxy-1′-(3-methylbutyl)spiro[1-benzofuran-3,3′-indol]-2′(1′H)-one], in that order: 101 to 103 °C, 1 to 100 nM and over 50%.
In the same order, the values of `CC(C)CCN1C(=O)C2(COc3cc(O)c(C(=O)C(F)(F)F)cc32)c2ccccc21` (stereo not drawn) [Example 11.50, 6-hydroxy-1′-(3-methylbutyl)-5-(trifluoroacetyl)spiro[1-benzofuran-3,3′-indol]-2′(1′H)-one] are 87 to 88 °C, 1000 to 10000 nM and over 50%.
In turn, `O=C1N(Cc2ccc(C(F)(F)F)o2)c2ccccc2C12COc1cc(N[C@@H]3CCNC3)ccc12` (stereo partly drawn) [Example 11.52, 6-[(3R)-pyrrolidin-3-ylamino]-1′-{[5-(trifluoromethyl)furan-2-yl]methyl}spiro[1-benzofuran-3,3′-indol]-2′(1′H)-one] gave a melting point of 122 to 125 °C. For the same compound, the IC50 in the data set with sodium channel lay in the range of 100 to 1000 nM. Also, the inhibition at 10 µM on CYP3A4 is over 50%.
`O=C1N(C[C@H]2CCCO2)c2ccccc2C12COc1cc(O)ccc12` (stereo partly drawn) [Example 11.53, 6-hydroxy-1′-[(2R)-tetrahydrofuran-2-ylmethyl]spiro[1-benzofuran-3,3′-indol]-2′(1′H)-one] had a melting point of 72 to 74 °C. The 50% inhibitory concentration (IC50) in the data set with sodium channel lay within 100 to 1000 nM. For the same compound, the inhibition at 10 µM on CYP3A4 was under 50%.
In the same order, the values of `Cl.O=C1N(C[C@H]2CCCO2)c2ccccc2C12COc1cc(O[C@H]3CCNC3)ccc12` (stereo partly drawn) [Example 11.56, 6-[(3S)-pyrrolidin-3-yloxy]-1′-[(2R)-tetrahydrofuran-2-ylmethyl]spiro[1-benzofuran-3,3′-indol]-2′(1′H)-one hydrochloride] are 119 to 121 °C, 1000 to 10000 nM and under 50%.
For `Cl.O=C1N(C[C@H]2CCCO2)c2ccccc2C12COc1cc(O[C@@H]3CCNC3)ccc12` (stereo partly drawn) [Example 11.58, 6-[(3R)-pyrrolidin-3-yloxy]-1′-[(2R)-tetrahydrofuran-2-ylmethyl]spiro[1-benzofuran-3,3′-indol]-2′(1′H)-one hydrochloride], in that order: 120 to 130 °C, 1000 to 10000 nM and under 50%.
Take `O=C1COc2cc3c(cc21)C1(CO3)C(=O)N(C[C@H]2CCCO2)c2ccccc21` (stereo partly drawn) [Example 11.60, 1′-[(2R)-tetrahydrofuran-2-ylmethyl]spiro[benzo[1,2-b:5,4-b′]difuran-3,3′-indole]-2′,5(1′H,6H)-dione]: the melting point was 142 to 144 °C. In the data set with sodium channel, the IC50 lay within 100 to 1000 nM. The inhibition at 10 µM at CYP3A4 is under 50%.
On to `CN1C(=O)CC[C@H]1CN1C(=O)C2(COc3cc4c(cc32)CCO4)c2ccccc21` (stereo partly drawn) [Example 11.70, 1′-{[(2S)-1-methyl-5-oxopyrrolidin-2-yl]methyl}-5,6-dihydrospiro[benzo[1,2-b:5,4-b′]difuran-3,3′-indol]-2′(1′H)-one], for which the melting point is 72 to 76 °C. Besides, the IC50 in the data set with sodium channel was in the range of 1000 to 10000 nM. On CYP3A4, the inhibition at 10 µM was over 50%.
In the same order, the values of `O=C1N(Cc2noc(C(F)(F)F)n2)c2ccccc2C12COc1cc3c(cc12)OCO3` (stereo not drawn) [Example 11.72, 1-{[5-(trifluoromethyl)-1,2,4-oxadiazol-3-yl]methyl}spiro[furo[2,3-f][1,3]benzodioxole-7,3′-indol]-2′(1′H)-one] are 139 to 140 °C, 1 to 100 nM and over 50%.
For `CC(C)NC(=O)N1CCCC(CCN2C(=O)C3(COc4cc5c(cc43)OCO5)c3ccccc32)C1` (stereo not drawn) [Example 11.73, N-isopropyl-3-[2-(2′-oxospiro[furo[2,3-f][1,3]benzodioxole-7,3′-indol]-1′(2′H)-yl)ethyl]piperidine-1-carboxamide], in that order: 206 to 208 °C, 100 to 1000 nM and over 50%.
In the same order, the values of `N#Cc1csc(CN2C(=O)C3(COc4cc5c(cc43)OCO5)c3ccccc32)c1` (stereo not drawn) [Example 11.74, 5-[(2′-oxospiro[furo[2,3-][1,3′]benzodioxole-7,3′-indol]-1′(2′H)-yl)methyl]thiophene-3-carbonitrile] are 207 to 209 °C, 1 to 100 nM and over 50%.
The compound `N#Cc1cccc2c1NC(=O)C21COc2cc3c(cc21)OCO3` (stereo not drawn) [Example 11.75, 2′-oxo-1′,2′-dihydrospiro[furo[2,3-f][1,3]benzodioxole-7,3′-indole]-7′-carbonitrile] displayed a melting point of 205 to 207 °C. In the data set on sodium channel, the IC50 was 100 to 1000 nM. The inhibition at 10 µM at CYP3A4 is over 50%.
In the same order, the values of `O=C1N(Cc2ncccc2Br)c2ccccc2C12COc1cc3c(cc12)OCCO3` (stereo not drawn) [Example 11.78] are 217 to 218 °C, 1 to 100 nM and under 50%.
